The NIST ThermoML archive (doi:10.1016/j.jct.2011.07.021)

How the values were obtained:
[1] = refractive index (Na D-line) (dimensionless); xn = mol fraction of the nth substance listed; settings: 101 kPa, Liquid, Standard Abbe refractometry
[2] = relative permittivity at zero frequency (dimensionless); xn = mol fraction of the nth substance listed; settings: 101 kPa, Liquid, Parallel plate capacitor

CCCCC(CC)CO (configuration not stated) [2-ethyl-1-hexanol] + CCC(O)CO
Settings	refractive index, 298.2 K	refractive index, 308.2 K	refractive index, 318.2 K	relative permittivity at zero frequency, 298.2 K	relative permittivity at zero frequency, 308.2 K	relative permittivity at zero frequency, 318.2 K
[1], x2 = 0	1.4293	1.4252	1.4213	–	–	–
[1], x2 = 0.111	1.4295	1.4254	1.4215	–	–	–
[1], x2 = 0.199	1.4295	1.4257	1.4219	–	–	–
[1], x2 = 0.291	1.4299	1.4259	1.4222	–	–	–
[1], x2 = 0.345	1.4301	1.4261	1.4225	–	–	–
[1], x2 = 0.399	1.4303	1.4265	1.4228	–	–	–
[1], x2 = 0.448	1.4307	1.4269	1.423	–	–	–
[1], x2 = 0.501	1.431	1.4272	1.4234	–	–	–
[1], x2 = 0.563	1.4313	1.4275	1.4237	–	–	–
[1], x2 = 0.625	1.432	1.4281	1.4241	–	–	–
[1], x2 = 0.667	1.4323	1.4284	1.4245	–	–	–
[1], x2 = 0.702	1.4327	1.4289	1.4249	–	–	–
[1], x2 = 0.75	1.4335	1.4295	1.4253	–	–	–
[1], x2 = 0.814	1.4342	1.4303	1.4259	–	–	–
[1], x2 = 0.897	1.4354	1.4314	1.427	–	–	–
[2], x2 = 0	–	–	–	7.353	6.362	5.52
[2], x2 = 0.111	–	–	–	7.683	6.922	6.232
[2], x2 = 0.199	–	–	–	8.152	7.52	6.851
[2], x2 = 0.291	–	–	–	8.91	8.32	7.636
[2], x2 = 0.345	–	–	–	9.464	8.8	8.14
[2], x2 = 0.399	–	–	–	10.065	9.44	8.701
[2], x2 = 0.448	–	–	–	10.678	9.995	9.312
[2], x2 = 0.501	–	–	–	11.404	10.69	9.954
[2], x2 = 0.563	–	–	–	12.382	11.556	10.873
[2], x2 = 0.625	–	–	–	13.435	12.625	11.819
[2], x2 = 0.667	–	–	–	14.198	13.357	12.559
[2], x2 = 0.702	–	–	–	14.955	14.023	13.21
[2], x2 = 0.75	–	–	–	15.885	15.005	14.022
[2], x2 = 0.814	–	–	–	17.454	16.338	15.347
[2], x2 = 0.897	–	–	–	19.447	18.115	16.989

CCC(O)CO (configuration not stated) [1,2-butanediol] + C1COCCO1
Settings	refractive index, 298.2 K	refractive index, 308.2 K	refractive index, 318.2 K	relative permittivity at zero frequency, 298.2 K	relative permittivity at zero frequency, 308.2 K	relative permittivity at zero frequency, 318.2 K
[1], x1 = 0.099	1.4212	1.416	1.4103	–	–	–
[1], x1 = 0.148	1.4221	1.4166	1.4115	–	–	–
[1], x1 = 0.197	1.4227	1.4173	1.4124	–	–	–
[1], x1 = 0.246	1.4236	1.4182	1.4133	–	–	–
[1], x1 = 0.299	1.4242	1.4189	1.4142	–	–	–
[1], x1 = 0.349	1.4253	1.42	1.415	–	–	–
[1], x1 = 0.401	1.4259	1.4208	1.4162	–	–	–
[1], x1 = 0.448	1.4268	1.4218	1.4168	–	–	–
[1], x1 = 0.51	1.428	1.4231	1.4177	–	–	–
[1], x1 = 0.55	1.4287	1.4237	1.4191	–	–	–
[1], x1 = 0.611	1.4297	1.4248	1.4203	–	–	–
[1], x1 = 0.685	1.4311	1.4263	1.4218	–	–	–
[1], x1 = 0.788	1.433	1.4285	1.4236	–	–	–
[1], x1 = 0.855	1.4341	1.4295	1.4253	–	–	–
[1], x1 = 0.907	1.4353	1.4307	1.4265	–	–	–
[1], x1 = 0.96	1.436	1.432	1.4278	–	–	–
[1], x1 = 1	1.4372	1.433	1.4288	–	–	–
[2], x1 = 0.099	–	–	–	3.127	3.015	2.92
[2], x1 = 0.148	–	–	–	3.659	3.496	3.359
[2], x1 = 0.197	–	–	–	4.254	4.064	3.875
[2], x1 = 0.246	–	–	–	4.882	4.632	4.406
[2], x1 = 0.299	–	–	–	5.685	5.407	5.046
[2], x1 = 0.349	–	–	–	6.472	6.079	5.696
[2], x1 = 0.401	–	–	–	7.376	6.854	6.419
[2], x1 = 0.448	–	–	–	8.243	7.732	7.193
[2], x1 = 0.51	–	–	–	9.466	8.817	8.122
[2], x1 = 0.55	–	–	–	10.263	9.592	8.783
[2], x1 = 0.611	–	–	–	11.646	10.84	9.908
[2], x1 = 0.685	–	–	–	13.401	12.41	11.301
[2], x1 = 0.788	–	–	–	16.007	14.739	13.469
[2], x1 = 0.855	–	–	–	17.761	16.335	15.027
[2], x1 = 0.907	–	–	–	19.272	17.748	16.307
[2], x1 = 0.96	–	–	–	20.867	19.214	17.628
[2], x1 = 1	–	–	–	22.143	20.365	18.661
